Results taken from ChEMBL document CHEMBL1201862, “PubChem BioAssay data set” (2004).
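Compound exposure: 48 hours, 5 concentrations, 96-well plates. At the GI50, growth is halved.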 Activity calls are given as the source filed them. Cut-off read from the data, not from the text of the source: active = GI50 up to about 1.1 µM and inactive = higher.

Experiments:
Assay in all cases: NCI tumour cell line growth inhibition, 48 h
[1] = tested on: 786-0
[2] = tested on: A498
[3] = tested on: A549
[4] = tested on: ACHN
[5] = tested on: BT-549
[6] = tested on: CAKI-1
[7] = tested on: CCRF-CEM
[8] = tested on: COLO 205
[9] = tested on: DU-145
[10] = tested on: EKVX
[11] = tested on: HCC 2998
[12] = tested on: HCT-116
[13] = tested on: HCT-15
[14] = tested on: HL-60
[15] = tested on: HOP-62
[16] = tested on: HOP-92
[17] = tested on: HT-29
[18] = tested on: Hs-578T
[19] = tested on: IGROV-1
[20] = tested on: K562
[21] = tested on: KM12
[22] = tested on: LOX IMVI
[23] = tested on: M14
[24] = tested on: MDA-MB-231
[25] = tested on: MDA-MB-435
[26] = tested on: MDA-N
[27] = tested on: MOLT-4
[28] = tested on: Malme-3M
[29] = tested on: NCI-H226
[30] = tested on: NCI-H23
[31] = tested on: NCI-H460
[32] = tested on: NCI-H522
[33] = tested on: NCI/ADR-RES
[34] = tested on: OVCAR-3
[35] = tested on: OVCAR-4
[36] = tested on: OVCAR-5
[37] = tested on: OVCAR-8
[38] = tested on: PC-3
[39] = tested on: RPMI-8226
[40] = tested on: RXF 393
[41] = tested on: SF-268
[42] = tested on: SF-295
[43] = tested on: SF-539
[44] = tested on: SK-MEL-28
[45] = tested on: SK-MEL-2
[46] = tested on: SK-MEL-5
[47] = tested on: SN12C
[48] = tested on: SNB-19
[49] = tested on: SNB-75
[50] = tested on: SR
[51] = tested on: SW-620
[52] = tested on: T47D
[53] = tested on: TK-10
[54] = tested on: U-251
[55] = tested on: UACC-257
[56] = tested on: UACC-62
[57] = tested on: MCF7
[58] = tested on: SK-OV-3
[59] = tested on: UO-31

In the case of `Cc1nc(=O)[nH]c(NCCNCCO)c1C(=O)Nc1cccc2cc3ccccc3cc12`, the GI50 [1] is reported as > 100 µM (inactive), the GI50 [2] is reported as > 100 µM (inactive) and the GI50 [3] is reported as > 100 µM (inactive). For the same compound, the GI50 [4] was > 100 µM (inactive), the GI50 [5] was > 100 µM (inactive) and the GI50 [6] was > 100 µM (inactive). The GI50 [7] was > 100 µM (inactive), the GI50 [8] was > 100 µM (inactive) and the GI50 [9] was > 100 µM (inactive). For the same compound, the GI50 [10] was > 100 µM (inactive), the GI50 [11] was > 100 µM (inactive) and the GI50 [12] was > 100 µM (inactive). The GI50 [13] was greater than 100 µM, the GI50 [14] was > 100 µM (inactive) and the GI50 [15] was > 100 µM (inactive). The GI50 [16] was > 100 µM (inactive), the GI50 [17] was > 100 µM (inactive) and the GI50 [18] was > 100 µM (inactive). The GI50 [19] was > 100 µM (inactive), the GI50 [20] was > 100 µM (inactive) and the GI50 [21] was > 100 µM (inactive). The GI50 [22] was > 100 µM (inactive), the GI50 [23] was > 100 µM (inactive) and the GI50 [24] was > 100 µM (inactive). The GI50 [25] was > 100 µM (inactive), the GI50 [26] was > 100 µM (inactive) and the GI50 [27] was > 100 µM (inactive). For the same compound, the GI50 [28] was > 100 µM (inactive), the GI50 [29] was > 100 µM (inactive) and the GI50 [30] was > 100 µM (inactive). The GI50 [31] was > 100 µM (inactive), the GI50 [32] was > 100 µM (inactive) and the GI50 [33] was > 100 µM (inactive). The GI50 [34] was > 100 µM (inactive), the GI50 [35] was > 100 µM (inactive) and the GI50 [36] was > 100 µM (inactive). For the same compound, the GI50 [37] was > 100 µM (inactive), the GI50 [38] was > 100 µM (inactive) and the GI50 [39] was > 100 µM (inactive). For the same compound, the GI50 [40] was > 100 µM (inactive), the GI50 [41] was > 100 µM (inactive) and the GI50 [42] was > 100 µM (inactive). The GI50 [43] was > 100 µM (inactive), the GI50 [44] was > 100 µM (inactive) and the GI50 [45] was > 100 µM (inactive). For the same compound, the GI50 [46] was > 100 µM (inactive), the GI50 [47] was > 100 µM (inactive) and the GI50 [48] was > 100 µM (inactive). The GI50 [49] was > 100 µM (inactive), the GI50 [50] was > 100 µM (inactive) and the GI50 [51] was > 100 µM (inactive). For the same compound, the GI50 [52] was > 100 µM (inactive), the GI50 [53] was > 100 µM (inactive) and the GI50 [54] was > 100 µM (inactive). The GI50 [55] was > 100 µM (inactive) and the GI50 [56] was > 100 µM (inactive).

For `CC(Cc1ccccc1)Nc1ncnc2c1ncn2C1OC(CO)CC1O` (configuration not stated), the GI50 [1] was > 100 µM (inactive), the GI50 [2] was > 100 µM (inactive) and the GI50 [3] was > 100 µM (inactive). For the same compound, the GI50 [4] was > 100 µM (inactive), the GI50 [5] was > 100 µM (inactive) and the GI50 [6] was > 100 µM (inactive). The GI50 [7] was > 100 µM (inactive), the GI50 [8] was > 100 µM (inactive) and the GI50 [9] was > 100 µM (inactive). The GI50 [10] was > 100 µM (inactive), the GI50 [11] was > 100 µM (inactive) and the GI50 [12] was > 100 µM (inactive). The GI50 [13] was greater than 100 µM, the GI50 [15] was > 100 µM (inactive) and the GI50 [16] was > 100 µM (inactive). For the same compound, the GI50 [17] was > 100 µM (inactive), the GI50 [18] was 58.7 µM (inactive) and the GI50 [19] was > 100 µM (inactive). For the same compound, the GI50 [20] was > 100 µM (inactive), the GI50 [21] was > 100 µM (inactive) and the GI50 [22] was > 100 µM (inactive). For the same compound, the GI50 [23] was > 100 µM (inactive), the GI50 [57] was 0.611 µM (active) and the GI50 [24] was > 100 µM (inactive). For the same compound, the GI50 [25] was > 100 µM (inactive), the GI50 [26] was > 100 µM (inactive) and the GI50 [27] was > 100 µM (inactive). For the same compound, the GI50 [28] was > 100 µM (inactive), the GI50 [29] was > 100 µM (inactive) and the GI50 [30] was > 100 µM (inactive). The GI50 [31] was > 100 µM (inactive), the GI50 [32] was > 100 µM (inactive) and the GI50 [33] was > 100 µM (inactive). The GI50 [34] was > 100 µM (inactive), the GI50 [35] was > 100 µM (inactive) and the GI50 [36] was > 100 µM (inactive). The GI50 [37] was > 100 µM (inactive), the GI50 [38] was > 100 µM (inactive) and the GI50 [39] was > 100 µM (inactive). For the same compound, the GI50 [40] was > 100 µM (inactive), the GI50 [41] was > 100 µM (inactive) and the GI50 [42] was 1.93 µM (inactive). For the same compound, the GI50 [44] was > 100 µM (inactive), the GI50 [45] was > 100 µM (inactive) and the GI50 [46] was > 100 µM (inactive). The GI50 [58] was 3.71 µM (inactive), the GI50 [47] was > 100 µM (inactive) and the GI50 [48] was > 100 µM (inactive). The GI50 [49] was > 100 µM (inactive), the GI50 [51] was > 100 µM (inactive) and the GI50 [52] was > 100 µM (inactive). The GI50 [53] was > 100 µM (inactive), the GI50 [54] was > 100 µM (inactive) and the GI50 [55] was > 100 µM (inactive). The GI50 [56] was > 100 µM (inactive) and the GI50 [59] was > 100 µM (inactive).
